Measurements as given in ChEMBL document CHEMBL1201862, “PubChem BioAssay data set” (2004).
Calls of active or inactive are those of the source.

How the values were obtained:
Cytochrome P450 2C19 = Cytochrome P450 2C19 (Homo sapiens, UniProt P33261); assay: Cytochrome panel assay with activity outcomes. Panel member name: p450-cyp2c19 Compounds with AC50 equal or less than 10 uM are considered active; assay type: functional; settings: read-out: AC50
Cytochrome P450 2C9 = Cytochrome P450 2C9 (Homo sapiens, UniProt P11712)
Streptococcus = assay: Group A Streptococcus viability loss, dose response, counter-screen for streptokinase expression inhibitor project, luminescence, BacTiterGlo (AID 1915); assay type: functional, organism-based;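 further: potency for reduction of bacterial viability or growth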
[1] = test system: Streptococcus sp. 'group A'; assay: growth inhibition of control SK(-) GAS strain, dose response, counter-screen for streptokinase expression inhibitor project, luminescence, kanamycin, BacTiterGlo, confirmation (AID 1900); assay type: functional, organism-based
[2] = target: T1, Heat shock factor protein 1 (Mus musculus, UniProt P38532); assay: inhibition of MG132-induced HSE-luciferase signal, confirmation, cell-based, NIH3T3, luminescence, dose retest (AID 2382); assay type: functional;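 further: NIH3T3 fibroblasts with HSF1-driven luciferase reporter stressed by proteasome inhibitor MG132; luminescence from HSF1-driven luciferase expression after 8 hours of MG132 stress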
T1 sequence (P38532 whole entry): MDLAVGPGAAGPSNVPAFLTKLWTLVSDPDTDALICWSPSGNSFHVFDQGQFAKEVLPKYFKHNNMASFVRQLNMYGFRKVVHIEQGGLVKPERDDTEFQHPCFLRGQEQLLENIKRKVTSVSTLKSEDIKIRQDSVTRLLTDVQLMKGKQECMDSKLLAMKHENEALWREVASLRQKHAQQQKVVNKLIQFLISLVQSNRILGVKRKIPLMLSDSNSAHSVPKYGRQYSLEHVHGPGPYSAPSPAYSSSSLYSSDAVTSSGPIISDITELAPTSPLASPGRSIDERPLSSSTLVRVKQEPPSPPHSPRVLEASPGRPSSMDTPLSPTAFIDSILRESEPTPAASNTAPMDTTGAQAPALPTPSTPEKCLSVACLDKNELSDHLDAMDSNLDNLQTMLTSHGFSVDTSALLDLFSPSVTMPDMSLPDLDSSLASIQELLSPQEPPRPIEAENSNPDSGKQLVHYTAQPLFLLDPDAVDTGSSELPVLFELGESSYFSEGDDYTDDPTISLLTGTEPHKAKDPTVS

[3] = Luminescence Cell-Based Dose Retest to Confirm Inhibitors of Cancer Stem Cells. [Related pubchem assays (depositor defined):AID2717, AID2721]; assay type: functional; settings: Homo sapiens
[4] = cytotoxicity toward NIH3T3 fibroblasts, dose response, counter-screen, cell-based, ATP luminescence, mouse fibroblasts (AID 2010); assay type: functional;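 further: cells exposed to compound for about 90 hours before reading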
[5] = inhibitors of intracellular T. cruzi replication, confirmation, NIH3T3 host cells, beta-gal luminescence (AID 2044); assay type: functional, cell-based;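 further: intracellular parasites grown in NIH/3T3 mouse fibroblasts as host cells; luminescent beta-galactosidase reporter signal from transgenic T. cruzi replicating inside host cells; inhibitors lower the luminescence signal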
Cytochrome P450 1A2 = target: T2, Cytochrome P450 1A2 (Homo sapiens, UniProt P05177);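 further: PubChem cytochrome P450 panel assay, CYP1A2 panel member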
T2 sequence (P05177 whole entry): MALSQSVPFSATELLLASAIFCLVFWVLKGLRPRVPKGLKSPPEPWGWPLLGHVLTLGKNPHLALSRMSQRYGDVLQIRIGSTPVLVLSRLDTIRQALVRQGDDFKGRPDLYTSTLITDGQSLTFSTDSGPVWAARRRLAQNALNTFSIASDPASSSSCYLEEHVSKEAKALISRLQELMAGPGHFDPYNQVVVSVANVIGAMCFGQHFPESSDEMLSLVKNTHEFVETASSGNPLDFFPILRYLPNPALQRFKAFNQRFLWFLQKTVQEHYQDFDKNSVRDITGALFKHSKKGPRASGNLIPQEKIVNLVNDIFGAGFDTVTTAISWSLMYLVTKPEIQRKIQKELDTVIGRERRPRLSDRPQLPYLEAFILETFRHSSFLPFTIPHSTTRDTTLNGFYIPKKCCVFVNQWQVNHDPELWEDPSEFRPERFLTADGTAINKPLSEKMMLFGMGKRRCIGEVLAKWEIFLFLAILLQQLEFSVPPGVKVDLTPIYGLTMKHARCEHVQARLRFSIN

Cytochrome P450 3A4 = Cytochrome P450 3A4 (Homo sapiens, UniProt P08684);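 further: CYP3A4 tested as one member of a cytochrome P450 panel screen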
Cytochrome P450 2D6 = Cytochrome P450 2D6 (Homo sapiens, UniProt P10635);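 further: CYP2D6 member of a cytochrome P450 panel assay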
Cytochrome P450 2D6, sequence (P10635 whole entry): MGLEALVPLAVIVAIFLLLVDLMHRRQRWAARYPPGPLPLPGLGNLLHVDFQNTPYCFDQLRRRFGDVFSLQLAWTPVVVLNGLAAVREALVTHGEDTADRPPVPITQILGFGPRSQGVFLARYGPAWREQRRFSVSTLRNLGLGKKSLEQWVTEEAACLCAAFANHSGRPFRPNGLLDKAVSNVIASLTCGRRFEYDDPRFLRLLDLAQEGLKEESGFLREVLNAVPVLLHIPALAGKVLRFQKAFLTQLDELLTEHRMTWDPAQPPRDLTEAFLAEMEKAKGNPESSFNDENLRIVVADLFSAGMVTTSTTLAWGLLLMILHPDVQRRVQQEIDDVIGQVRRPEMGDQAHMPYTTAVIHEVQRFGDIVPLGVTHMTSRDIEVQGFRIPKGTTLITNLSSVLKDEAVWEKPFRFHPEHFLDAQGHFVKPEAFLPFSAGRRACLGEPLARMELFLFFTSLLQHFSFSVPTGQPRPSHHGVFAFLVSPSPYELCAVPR

Cytochrome P450 2C19, sequence (P33261 whole entry): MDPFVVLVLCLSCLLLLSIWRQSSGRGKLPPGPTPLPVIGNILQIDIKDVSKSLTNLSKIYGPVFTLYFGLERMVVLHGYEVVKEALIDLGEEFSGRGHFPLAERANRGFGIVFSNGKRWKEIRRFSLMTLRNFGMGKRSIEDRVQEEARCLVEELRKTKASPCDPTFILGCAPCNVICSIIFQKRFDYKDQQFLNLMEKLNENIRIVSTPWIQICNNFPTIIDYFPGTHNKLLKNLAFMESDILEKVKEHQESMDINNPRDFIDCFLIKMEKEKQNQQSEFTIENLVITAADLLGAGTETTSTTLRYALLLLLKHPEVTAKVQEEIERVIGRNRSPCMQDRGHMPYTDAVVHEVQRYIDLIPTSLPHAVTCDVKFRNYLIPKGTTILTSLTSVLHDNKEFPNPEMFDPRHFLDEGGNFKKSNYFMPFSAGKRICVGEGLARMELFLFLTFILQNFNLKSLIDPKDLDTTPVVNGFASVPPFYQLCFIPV
Cytochrome P450 3A4, sequence (P08684 whole entry): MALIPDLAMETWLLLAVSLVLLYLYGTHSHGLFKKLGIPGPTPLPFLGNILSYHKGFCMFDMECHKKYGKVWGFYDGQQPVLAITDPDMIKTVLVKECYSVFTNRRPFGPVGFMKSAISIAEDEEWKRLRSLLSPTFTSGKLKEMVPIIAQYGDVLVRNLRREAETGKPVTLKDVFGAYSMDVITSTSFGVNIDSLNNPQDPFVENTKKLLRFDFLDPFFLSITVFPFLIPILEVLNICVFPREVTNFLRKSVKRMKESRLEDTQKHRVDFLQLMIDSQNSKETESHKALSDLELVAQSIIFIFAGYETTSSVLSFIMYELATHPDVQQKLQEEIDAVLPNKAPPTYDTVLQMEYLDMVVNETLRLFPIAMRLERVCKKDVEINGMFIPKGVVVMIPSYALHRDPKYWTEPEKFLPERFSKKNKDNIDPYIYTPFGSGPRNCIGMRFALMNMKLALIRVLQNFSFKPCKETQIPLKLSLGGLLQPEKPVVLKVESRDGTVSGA
Cytochrome P450 2C9, sequence (P11712 whole entry): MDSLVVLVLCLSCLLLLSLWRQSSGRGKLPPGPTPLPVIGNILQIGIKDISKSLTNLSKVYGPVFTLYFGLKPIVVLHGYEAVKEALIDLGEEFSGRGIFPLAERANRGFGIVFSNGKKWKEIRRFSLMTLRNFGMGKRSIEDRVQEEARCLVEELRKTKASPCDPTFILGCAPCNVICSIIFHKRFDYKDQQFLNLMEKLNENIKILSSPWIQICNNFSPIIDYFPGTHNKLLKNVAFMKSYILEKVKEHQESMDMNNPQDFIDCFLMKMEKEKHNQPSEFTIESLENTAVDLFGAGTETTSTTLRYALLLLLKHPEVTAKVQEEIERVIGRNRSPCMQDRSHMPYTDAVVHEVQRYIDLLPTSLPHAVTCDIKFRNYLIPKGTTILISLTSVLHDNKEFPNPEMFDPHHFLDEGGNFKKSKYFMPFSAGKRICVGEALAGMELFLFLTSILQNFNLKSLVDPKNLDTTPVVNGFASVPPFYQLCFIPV

Structure (SMILES): COCCn1c(=O)c(-c2cccs2)nc2cncnc21
- AC50 (Cytochrome P450 2C19): 25.1 µM (inconclusive)
- AC50 (Cytochrome P450 2C9): 20 µM (inconclusive)

Structure (SMILES): COc1cc2c(cc1OC)C(C(=O)N1CCN(c3ccccn3)CC1)C(c1cccs1)N(C)C2=O (stereo not given)
- AC50 (Cytochrome P450 2C9): 17.8 µM (inconclusive)

Structure (SMILES): N#CCC(=O)Nc1ccc(C(=O)OC(C(=O)Nc2cc(C(F)(F)F)ccc2Cl)c2ccccc2)cc1 (stereo not given)
- EC50 (Streptococcus): 6.92 µM (active)
- EC50 [1]: 2.31 µM (active)

Structure (SMILES): COC(=O)CCN1CCc2cc(N=Nc3ccc([N+](=O)[O-])cc3)ccc21
- EC50 [2]: 40.1 µM (active)

Structure (SMILES): COc1ccc(Nc2nc(-c3cccc([N+](=O)[O-])c3)nc3ccccc23)cc1
- AC50 [3]: 2.83 µM (active)
- EC50 [4]: > 60 µM (not active)
- EC50 [5]: 1.71 µM (active)

Structure (SMILES): Sc1nnc(-c2ccc(Cl)cc2)n1Cc1ccccc1
- AC50 [3]: 0.734 µM (active)

Structure (SMILES): O=c1cc(-c2ccc(O)cc2)oc2c([C@H]3O[C@@H](CO)[C@@H](O)[C@@H](O)[C@@H]3O)c(O)cc(O)c12
- AC50 (Cytochrome P450 1A2): 20 µM (inconclusive)

Structure (SMILES): Cc1cccc(-n2c(S)nnc2Cn2nc(C)c([N+](=O)[O-])c2C)c1
- AC50 (Cytochrome P450 2C19): 20 µM (inconclusive)
- AC50 (Cytochrome P450 2C9): 7.08 µM (inconclusive)

Structure (SMILES): CC1(C(=O)NCCCNc2ncc(C(F)(F)F)cc2Cl)C=CC2(CCCCC2)N1C(=O)c1ccccc1 (stereo not given)
- EC50 [2]: > 195 µM (not active)

Structure (SMILES): CCNc1ncc2nc(-c3ccc(OC)cc3)c(=O)n(Cc3cccc(OC)c3)c2n1
- AC50 (Cytochrome P450 3A4): 25.1 µM (inconclusive)
- AC50 (Cytochrome P450 1A2): 15.8 µM (inconclusive)

Structure (SMILES): COC(=O)[C@@]1(Cc2ccccc2)[C@H]2c3cc(C(=O)N(C)C)n(Cc4c(CO)ncc(C)c4O)c3C[C@H]2CN1C(=O)c1ccccc1
- AC50 (Cytochrome P450 1A2): 25.1 µM (inconclusive)

Structure (SMILES): Cc1cc(OCC(F)(F)C(F)(F)C(F)(F)C(F)(F)C(F)(F)C(F)F)nc(N)n1
- AC50 (Cytochrome P450 1A2): 28.2 µM (inconclusive)

Structure (SMILES): O=C(Nc1ccc(F)cc1)c1nc(O)c2nnn(Cc3cccc4ccccc34)c2n1
- EC50 (Streptococcus): 37.2 µM (active)
- EC50 [1]: 2.58 µM (active)

Structure (SMILES): O=C(Nc1nnc(S(=O)(=O)N2CCCCCC2)s1)c1ccccc1Cl
- EC50 [2]: > 195 µM (not active)

Structure (SMILES): CC(C)(C)c1nc(N2CCN(C(=O)c3ccco3)CC2)c2nnn(Cc3ccccc3)c2n1
- EC50 [2]: > 195 µM (not active)

Structure (SMILES): CCCCCCSc1cccc(-c2nc3ccc(C)cn3c2NCc2ccccc2)c1
- AC50 [3]: 3.14 µM (active)

Structure (SMILES): COCCn1c(=O)[nH]c2cc(C(=O)NC3CCCCCC3)ccc2c1=O
- EC50 [2]: > 195 µM (not active)

Structure (SMILES): COC(=O)C1CCN(C(=O)c2sc3nc(-c4ccccc4)cn3c2C)CC1
- EC50 [2]: > 195 µM (not active)

Structure (SMILES): Cc1ccc(C(=O)CSc2nc(-c3ccccc3)ccc2C#N)cc1
- AC50 [3]: 3.28 µM (active)

Structure (SMILES): CC(C)n1c(N2CCN(C(=O)Nc3ccccc3)CC2)nc2ccccc21
- AC50 (Cytochrome P450 2C19): 22.4 µM (inconclusive)
- AC50 (Cytochrome P450 1A2): 25.1 µM (inconclusive)

Structure (SMILES): C/C(CCN1CCc2nc(-c3ccccc3)c(-c3ccccc3)cc2C1)=N\O[C@@H](C)CN1CCCc2nc(C)c(C)cc21
- AC50 (Cytochrome P450 2D6): 3.16 µM (inconclusive)
- AC50 (Cytochrome P450 3A4): 3.98 µM (inconclusive)

Structure (SMILES): O=C(NCc1ccccc1Cl)C1CCN(S(=O)(=O)N2CCCC2)CC1
- EC50 [2]: > 195 µM (not active)

Structure (SMILES): CC(C)(C)c1ccc(NS(=O)(=O)c2ccc(N)cc2)cc1
- AC50 (Cytochrome P450 3A4): 1 µM (inconclusive)
- AC50 (Cytochrome P450 1A2): 3.16 µM (inconclusive)

Structure (SMILES): O=C(CSc1nccn1-c1ccccc1)c1ccc(Cl)cc1
- AC50 (Cytochrome P450 2D6): 3.16 µM (inconclusive)
- AC50 (Cytochrome P450 2C9): 3.98 µM (inconclusive)

Structure (SMILES): CC1CCCC(C)N1C(=O)CSc1ccc(-c2ccc3c(c2)OCCO3)nn1 (stereo not given)
- EC50 [2]: > 195 µM (not active)

Structure (SMILES): O=C1Oc2ccccc2C2(O)C3CCCCCC3C12 (stereo not given)
- AC50 (Cytochrome P450 2C9): 22.4 µM (inconclusive)

Structure (SMILES): O=C(CNC(=O)c1ccco1)OC(C(=O)c1ccccc1)c1ccccc1 (stereo not given)
- AC50 (Cytochrome P450 3A4): 28.2 µM (inconclusive)
- AC50 (Cytochrome P450 1A2): 15.8 µM (inconclusive)

Structure (SMILES): O=C(O)[C@H]1CCc2ccc3ccccc3c2[C@H]1c1cccc2ccccc12
- AC50 (Cytochrome P450 2C9): 7.94 µM (inconclusive)
